We go through 2 compounds from patent publication US8653048B2 (Sanlugen Pharmatech Ltd., priority 2009, dated 2014).

One data set relates to Hepatocellular Carcinoma. Particulars: patients, liver cancer treatment; cited from earlier work.
For data set [1], the system named is SGC7901: a human gastric cancer line. The data set can be described thus: MTT analytical method, SGC7901 cells. It counts as cell-based. Particulars: SGC-7901, 72 h. An excerpt: (§1) MTT analytical method was used to test the prodrugs for various tumor cells.
(§2) • 1) Cell lines: NCI-H460, A549, LOVO, HT-29, MDA-MB-231, SGC7901, HepG2 or BEL-7402 cell lines. Culture: adherent culturing in D-MEM (Hyclone, Inc.) containing 10% fetal calf serum. The initial cell concentration was about 3×10^5 /mL. The cell was passaged by 1:3 dilution in every 2-3 days. On the day before the test, the cell was passaged by 1:2 dilution, the cell concentration for the test was 5-10×10^5 /mL. • 2) Dissolution and dilution of compounds: according to the weight and molecular weight of the drugs provided, 100-200 μL of DMSO was added. Then normal saline was added to make the final diluted concentration of the drugs be 5 mM (Note that the final concentration of DMSO should not be more than 10%). • 3) D-MEM or RPMI 1640 cell culture medium, Gibco, Inc. • 4) Fetal calf serum Hyclone, Inc. • 5) Cell dissociation buffer, 0.25% Trypsin+0.02% EDTA. • 6) MTT solution, MTT Powder (Sigma) were dissolved in PBS buffer solution to make a solution of 5 mg/mL. The solution was filtered by a 0.22 μm micropore membrane and stored at −20° C. • 7) PBS buffer solution. • 8) 10% acidified SDS, 0.01N HCl. • 9) Centrifuge tubes, haustorial tubes etc. (BD, Inc.); 96-well plates (Costatr, Inc.) Procedures: • 1) Cell inoculation: Cells grown for 24 hours after passage, which cells were in good growth state, were used. The cells were harvested by the routine method. The cell concentration was adjust with a fresh culture solution to 2×10^5/mL (for adherent cells)-3×10^5/mL (for suspension cells). The adherent cells were inoculated at 100 μL/well and then cultivated in an incubator with 5% CO2 at 37° C. for 24 h. Thereafter the used culture solution was removed and 95 μL/well of fresh culture solution was added. The suspension cells were inoculated at 95 μL/well directly. • 2) Drugs treatment: 9 concentration grades were designed for every drug, and every concentration had 3 wells. The control group had 5 wells. The control group was tested simultaneously in each test. The final concentrations of a drug added were […], and 5 μL normal saline was added to the control group. • 3) Cell culture and detection: the cells were cultured in an incubator with 5% CO2 at 37° C. for 72 h after the drug was added, then 10 μL MTT was added to each well and the culture was continued for 4 h. 100 μL of 10% SDS (containing 0.01N HCl) was added to each well. After 24 h, the absorbance (A) of each well was determined by Bio-rad 680 ELISA with the detection wavelength of 570 nm and the reference wavelength of 630 nm. Calculation:
(§3) First, the absorbance (A) of each well was averaged (removing any data with big difference). […] A0 was the mean absorbance of the control wells. The effect curve of the drug concentration was drawn using EXCEL software and the drug concentration for 50% cell survival was calculated according to an appropriate computing methods.

Data set [2] has as its system NCI-H460: a human lung cancer cell line. The experiment in a line: MTT analytical method, NCI-H460 cells. Particulars: 72 h. Type of data set: cell-based.
From the text: as §1, §2, §3
On the technique in general: Tetrazolium dyes change colour on reduction, which living cells bring about.

In data set [3] the test system is HepG2: a human liver cancer cell line. The data set can be described thus: MTT analytical method, HepG2 cells. Type of data set: cell-based. Particulars: 72 h.
From the text: as §1, §2, §3

Data set [4] relates to LOVO: a human colon cancer cell line. The experiment in a line: MTT analytical method, LOVO cells. It counts as cell-based. Particulars: 72 h.
From the text: as §1, §2, §3

The subject of data set [5] is A549: a human lung cancer cell line. The data set can be described thus: MTT analytical method, A549 cells. Type of data set: cell-based. Particulars: 72 h.
From the text: as §1, §2, §3

Data set [6] has as its system HT29: a human colon cancer cell line. The data set can be described thus: MTT analytical method, HT29 cells. Particulars: HT-29, 72 h. It counts as cell-based.
From the text: as §1, §2, §3

In data set [7] the test system is Bel7402: a human liver cancer cell line. The data set can be described thus: MTT analytical method, Bel7402 cells. It counts as cell-based. Particulars: Bel-7402, 72 h.
From the text: as §1, §2, §3

Data set [8] deals with MDA-MB-231: a human breast cancer line. The experiment in a line: MTT analytical method, MDA-MB-231 cells. Type of data set: cell-based. Particulars: MDA-MB-231, MTT, 72 h.
From the text: as §1, §2, §3

In general, IC50 refers to the concentration needed to halve the response being measured. A lower IC50 goes with greater potency in that assay.

Take `COc1cccc2c1C(=O)c1c(O)c3c(c(O)c1C2=O)C[C@@](O)(C(=O)CO)C[C@@H]3O[C@H]1C[C@H](N)[C@H](O)[C@H](C)O1` [Doxorubicin]: the “fatal rate of complication” value in the data set with Hepatocellular Carcinoma is reported as approximately 25%.
As for `CCCCCCCCCCCCOC(=O)c1ccc(C(=O)Nc2ccn([C@@H]3O[C@H](CO)[C@@H](O)C3(F)F)c(=O)n2)nc1` [Compound 8, Dodecyl-6-((1-((2R,4R,5R)-3,3-difluoro-4-hydroxy-5-(hydroxymethyl)-tetrahydrofuran-2-yl)-2-oxo-1,2-dihydropyrimidin-4-yl)carbamoyl)nicotinate], the 50% inhibitory concentration (IC50) is more than 16 µM in data set [1]; less than 2 µM in [2]; 7 µM in [3]; 14 µM in data set [4]; 4 µM in data set [5]; 6 µM in data set [6]. In addition, the IC50 in data set [7] was 23 µM; in data set [8] it was more than 16 µM.
